Measured values: patent US5847047A, “Antimicrobial composition of a polymer and a peptide forming amphiphilic helices of the magainin-type” (priority 1995, dated 1998)
Where a SMILES comes first, the peptide text is derived from it. Where no end group is shown, it is not given here.

What was measured:
E. coli [1] = experiment: Antimicrobial activity of soluble oligopeptides, microtiter growth inhibition (MIC); format: cell-based; conditions: soluble peptide, LB broth, 37° C.
Method: (§1) The term "MIC" refers to minimal inhibitory concentration and will be defined as the lowest concentration of either soluble peptide or peptide immobilized on a polymer that results in total kill of bacteria.
(§2) Typically, assays for antimicrobial activity of soluble oligopeptide compositions were carried out in microtiter wells. Each well was charged with 150 μl of LB broth containing cells at a final concentration of between 1×10^6 to 1×10^7 cells/ml and oligopeptide at final concentrations of 1×10^-3 to 1×10^-6 M. It is preferred that the oligopeptides be dissolved in water prior to addition to the assay medium and that cells be inoculated from mid-log phase cultures. […] Cultures showing cell growth inhibition were incubated for an additional 15 hr. at which time a final absorbance reading was taken. FIGS. 4a-d illustrate the cell growth inhibition of E. coli cultures incubated in the presence of various oligopeptides.
(§3) All manipulations with microorganisms involved the application of standard sterile techniques employed in microbiology. All cells were grown at 37° C. Cell concentration was measured by optical density measurements at 600 nm in a Perkin Elmer Model 552 UV/VIS spectrophotometer. The microorganisms used were strains of E. coli. and S. aureus. On the day prior to the assay, an overnight culture was prepared. On the following morning, the stationary phase cells were subcultured and allowed to grow to mid-log phase.
(§4) Each well was charged with LB Broth (150 mcL). The oligopeptide samples were dissolved in water and were added to achieve the appropriate final oligopeptide concentrations (ranging from 1×10^-3 to 1×10^-6 M) Finally, cells suspended in LB medium were added to a final concentration of between 1×10^6 to 1×10^7 cells/mL. The microtiter plate was covered and allowed to gently rotate in an orbital shaker. […] Control samples used for all experiments were: (a) LB broth only=uninoculated control; (b) LB broth only+cells=inoculated control.
In FIGS. 4a-d cell growth inhibition is plotted as molar concentration of antimicrobial peptide as a function of the number of cells killed/ml. FIG. 4a-d illustrates the activity of the core oligopeptide, the N-addition analogue of formula II, the N-addition analogue of formula III, and the N-addition analogue of formula IV, respectively. All cultures were actively growing in log-phase and at a cell concentration of 2.0×10^7 cells/ml.

S. aureus = experiment: as above; format: cell-based; conditions: soluble peptide, LB broth, 37° C.
Method: as §1, §2, §3, §4

E. coli [2] = experiment: Shake flask method for peptides covalently bound to polyamide resin (CFU count); format: cell-based; conditions: for % Reduction E. coli: immobilized peptide on EDA-PepsynK, determined as described in Example 9; for MIC E. coli: concentration of oligopeptide immobilized on PepsynK resin via EDA linker, shake flask, phosphate buffer pH 7.2, 37° C.
Method: (§5) Occasionally, a shake flask method was employed for insoluble articles. In the shake flask method, 75 mL of 0.6 mM phosphate buffer, pH 7.2 and 0.100 mL of the stock cell culture and the oligopeptide sample were added to a 250 mL polystyrene tissue culture flask. The flasks were incubated in a shaking water bath at 37° C. At specified times (1 hour and 24 hours), an aliquot (0.100 mL) was removed from the shake flask and serial dilutions ranging from 10 to 1000-fold were made to allow the enumeration of cells on agar plates. Each agar plate was inoculated with 0.200 mL of the diluted cell suspension, and the suspension was uniformly spread on the plate. Colony-forming units CFU on the agar plates were counted after 24 hours in an incubator (37° C.). Cells were identified by visual observation and use of a colony counter. Total CFU/mL was determined by correcting the cell count for the dilution factor.
Samples of peptides corresponding to the amino acid sequences SEQ ID NO:8, SEQ ID NO:13, SEQ ID NO:14, SEQ ID NO:15 and SEQ ID NO:1, were covalently linked to the polyamide resin PepSyn K as described in Example 10 and were tested for antimicrobial activity. Five compositions (PEPSYNK-LKP, PEPSYNK-LKPGK, PEPSYNK-LKPG2 K, PEPSYNK-LKPG3 K, and PEPSYNK-KGLKP) were tested over a range of 0 to 5 mg/ml of oligopeptide. Since the covalently linked oligopeptide/polymer compositions were insoluble, the protocol for testing antimicrobial activity was modified from that for the soluble peptide compositions of Example 2. Here, a shake flask method was employed.
as §5, with “In” for “Occasionally, a shake flask method was employed for insoluble articles. In”, “oligopeptide samples, ranging from 0 to 5 mg/ml of oligopeptide” for “oligopeptide sample”, “dilutions were made” for “dilutions”, “1000-fold” for “1000-fold were made”, “enumeration or” for “enumeration of”, “factor. In this manner the minimal inhibitory concentration (MIC) of oligopeptide for covalently linked compositions corresponding to PEPSYNK-LKP, PEPSYNK-LKPGK, PEPSYNK-LKPG2 K, PEPSYNK-LKPG3 K, and PEPSYNK-KGLKP were determined.” for “factor.”
The bactericidal activity for each immobilized peptide was determined as described in Example 9. The structures and the bactericidal activities of the immobilized peptides are shown in Table V. The relative activities against E. coli are consistent with what is known about the soluble peptides. […] The reverse magainin is a much poorer bactericide than its normal sequence.

Method for human erythrocytes: A 5.0% stock cell solution of human erythrocytes in phosphate buffered saline (PBS) was prepared by suspending 2.0 mL packed human erythrocytes in 38 mL of phosphate buffered saline (10 mM sodium phosphate, 120 mM sodium chloride, 2.7 mM potassium chloride, pH 7.5). Samples of the four compositions recited above were added to microfuge tubes containing 0.5 mL of cell solution and 0.5 mL of PBS. Upon addition of sample, the vials were capped, gently homogenized, then allowed to gently shake in an incubator at 37° C. for 30 minutes. The samples were centrifuged to sediment the cells. The supernatants were transferred to cuvettes and the absorbances at 414 nm were read in a Perkin Elmer 552 spectrophotometer. The 0 and 100% hemolysis controls were PBS and PBS +1.0% Triton X-100, respectively.

Row | Compound | Minimal Inhibitory Concentration E. coli (E. coli [1]) | Minimal Inhibitory Concentration S. aureus (S. aureus) | % Reduction E. coli (E. coli [2]) | MIC E. coli (E. coli [2]) | % Hemolysis at >6 mg/mL (human erythrocytes)
1 | CC(C)C[C@H](NC(=O)[C@H](CCCCN)NC(=O)[C@H](CC(C)C)NC(=O)[C@H](CC(C)C)NC(=O)[C@H](CCCCN)NC(=O)[C@H](CCCCN)NC(=O)[C@H](CC(C)C)NC(=O)[C@H](CC(C)C)NC(=O)[C@H](CCCCN)NC(=O)[C@H](CC(C)C)NC(=O)[C@H](CC(C)C)NC(=O)[C@H](CCCCN)NC(=O)[C@H](CCCCN)NC(=O)[C@H](CC(C)C)NC(=O)CNC(=O)[C@@H](N)CCCCN)C(=O)O [Formula II, KGLKKLLKLLKKLLKL] (H-KGLKKLLKLLKKLLKL-OH) | 7.8 µg/mL | 15.6 µg/mL | – | – | –
2 | CC(C)C[C@H](NC(=O)[C@H](CCCCN)NC(=O)[C@H](CC(C)C)NC(=O)[C@H](CC(C)C)NC(=O)[C@H](CCCCN)NC(=O)[C@H](CCCCN)NC(=O)[C@H](CC(C)C)NC(=O)[C@H](CC(C)C)NC(=O)[C@H](CCCCN)NC(=O)[C@H](CC(C)C)NC(=O)[C@H](CC(C)C)NC(=O)[C@H](CCCCN)NC(=O)[C@H](CCCCN)NC(=O)[C@H](CC(C)C)NC(=O)CNC(=O)CNC(=O)[C@@H](N)CCCCN)C(=O)O [Formula III, KGGLKKLLKLLKKLLKL] (H-KGGLKKLLKLLKKLLKL-OH) | 7.8 µg/mL | 62.5 µg/mL | – | – | –
3 | CC(C)C[C@H](NC(=O)[C@H](CCCCN)NC(=O)[C@H](CC(C)C)NC(=O)[C@H](CC(C)C)NC(=O)[C@H](CCCCN)NC(=O)[C@H](CCCCN)NC(=O)[C@H](CC(C)C)NC(=O)[C@H](CC(C)C)NC(=O)[C@H](CCCCN)NC(=O)[C@H](CC(C)C)NC(=O)[C@H](CC(C)C)NC(=O)[C@H](CCCCN)NC(=O)[C@H](CCCCN)NC(=O)[C@H](CC(C)C)NC(=O)CNC(=O)CNC(=O)CNC(=O)[C@@H](N)CCCCN)C(=O)O [Formula IV, KGGGLKKLLKLLKKLLKL] (H-KGGGLKKLLKLLKKLLKL-OH) | 7.8 µg/mL | 15.6 µg/mL | – | – | –
4 | CC(C)C[C@H](NC(=O)[C@H](CCCCN)NC(=O)[C@H](CC(C)C)NC(=O)[C@H](CC(C)C)NC(=O)[C@H](CCCCN)NC(=O)[C@H](CCCCN)NC(=O)[C@H](CC(C)C)NC(=O)[C@H](CC(C)C)NC(=O)[C@H](CCCCN)NC(=O)[C@H](CC(C)C)NC(=O)[C@H](CC(C)C)NC(=O)[C@H](CCCCN)NC(=O)[C@H](CCCCN)NC(=O)[C@@H](N)CC(C)C)C(=O)O [Formula I] (H-LKKLLKLLKKLLKL-OH) | 15.6 µg/mL | 31.2 µg/mL | – | – | –
5 | GIGKFLHSAKKFGKAFVGEIMNS (GIGKFLHSAKKFGKAFVGEIMNS; immobilized on EDA-PepsynK resin) [EDA-PepsynK reverse magainin2, reverse magainin 2 peptide immobilized on EDA-modified PepsynK resin] | – | – | 95.14% | – | –
6 | PepsynK-KGLKP: peptide SEQ ID NO:1 covalently linked to polyamide resin PepSyn K via non-cleavable EDA linker (KGLKKLLKLLKKLLKL; also: covalently linked to PepSyn K resin via EDA linker) | – | – | – | 888 µg/mL | > 0.7%
7 | PepsynK-LKPG2K: peptide SEQ ID NO:14 covalently linked to polyamide resin PepSyn K via non-cleavable EDA linker (LKLLKKLLKLLKKLGGK; also: covalently linked to PepSyn K resin via EDA linker) | – | – | – | 1208 µg/mL | 1.2%
8 | PepsynK-LKPG3K: peptide SEQ ID NO:15 covalently linked to polyamide resin PepSyn K via non-cleavable EDA linker (LKLLKKLLKLLKKLGGGK; also: covalently linked to PepSyn K resin via EDA linker) | – | – | – | 938 µg/mL | 12.7%
9 | PepsynK-LKPGK: peptide SEQ ID NO:13 covalently linked to polyamide resin PepSyn K via non-cleavable EDA linker (LKLLKKLLKLLKKLGK; also: covalently linked to PepSyn K resin via EDA linker) | – | – | – | 2213 µg/mL | 0.7%
10 | Pepsynk-LKP: peptide SEQ ID NO:8 covalently linked to polyamide resin PepSyn K via non-cleavable EDA linker (LKKLLKLLKKLLKL; also: covalently linked to PepSyn K resin via EDA linker) | – | – | – | 807 µg/mL | 0.9%
11 | SNMIEGVFAKGFKKASHLFKGIG (SNMIEGVFAKGFKKASHLFKGIG; immobilized on EDA-PepsynK resin) [EDA-PepsynK magainin2, magainin 2 immobilized on EDA-modified PepsynK resin] | – | – | 100% | – | –
12 | V-F-A-K-G-F-K-K-A-S-H-L-F-K-G-I-G (VFAKGFKKASHLFKGIG; immobilized on EDA-PepsynK resin) [EDA-PepsynK magainin 17-mer deletion, 17-mer deletion peptide of magainin 2 immobilized on EDA-modified PepsynK resin] | – | – | 99.3% | – | –
